Measured values reported in patent publication EP3860599B1, “(+)-ALPHA-DIHYDROTETRABENAZINE DOSAGE REGIMEN FOR TREATING MOVEMENT DISORDERS” (Adeptio Pharmaceuticals Limited, priority 2018, dated 2020).

Legend:
Assay type in all cases: in vivo
[1] = Plasma concentrations after oral dosing (solution in apple juice) of human volunteers, Example 1A; conditions: for concentration at 1 h / concentration at 1.5 h / concentration at 2 h / concentration at 3 h / concentration at 0.5 h: human, plasma, po; for concentration at 0.5 h / plasma concentrations: 0.5 h
Method: (+)-α-Dihydrotetrabenazine in defined amounts was administered by oral dosing (as a solution in apple juice) to six human volunteers. […] At 60 minutes after drug administration, PET scans were initiated and these were stopped at 120 minutes after drug administration. The experiment was carried out at dosages of 7.5 mg, 15 mg and 22.5 mg. […]

[2] = target: T1, VMAT2 (Homo sapiens, UniProt Q05940); experiment: % VMAT2 blocking by PET scan after oral dosing of human volunteers, Example 1A
T1 construct: from tissue
Excerpt: Complete blocking of VMAT2 is considered undesirable as this can lead to unwanted side effects, such as Parkinsonism. […] The levels of VMAT2 blocking can be determined by competitive binding studies using Positron Emission Tomography (PET). By co-administering a radioactive ligand with the compound of interest at various concentrations, the proportion of binding sites occupied can be determined (see for example, Matthews et al., "Positron emission tomography molecular imaging for drug development", Br. J. Clin. Pharmacol., 73:2, 175-186).
Blood samples were taken at 30, 60, 120 and 180 minutes after drug administration. At 60 minutes after drug administration, PET scans were initiated and these were stopped at 120 minutes after drug administration.
The experiment was carried out at dosages of 7.5 mg, 15 mg and 22.5 mg.

[3] = system: non-amphetamine induced rats; experiment: Open field locomotor activity test in rats without amphetamine induction (Example 2, Study 3); conditions: 2.5 mg/kg or 5 mg/kg
Method: All animal experiments were carried out according to the National Institute of Health (NIH) guidelines for the care and use of laboratory animals, and approved by the National Animal Experiment Board, Finland. Male CD (Charles River Laboratories, Germany) at weight range of 200-250 g (165-200 g upon arrival) were used for the experiments. Animals were housed at a standard temperature (22 ± 1°C) and in a light-controlled environment (lights on from 7 am to 8 pm) with ad libitum access to food and water.
Locomotor activity of the rats was tested in open field arena. The open field test was performed during the rat light cycle and under a normal lighting evenly distributed to the test chambers. The paths of the rats were recorded by activity monitor (Med. Associates Inc.).
Dosing the vehicle, vehicle-amphetamine, (+)-α-DHTBZ or risperidone was done prior to LMA test. The rats were placed in the centre of the arena, and the path was recorded for 60 minutes.
Animals were grouped as follows: • Group 1: 10 rats treated with Vehicle • Group 2: 10 rats treated with (+)-α-DHTBZ 2.5 mg/kg • Group 3: 10 rats treated with (+)-α-DHTBZ 5 mg/kg • Group 4: 10 rats treated with risperidone 1 mg/kg

[4] = 7.5 mg, subject 1 (112 kg), 7.5 mg oral
[5] = 7.5 mg, subject 2 (76 kg), 7.5 mg oral
[6] = 7.5 mg, subject 3 (129 kg), 7.5 mg oral
[7] = 7.5 mg, subject 4 (59 kg), 7.5 mg oral
[8] = 7.5 mg, subject 5 (91 kg), 7.5 mg oral
[9] = 7.5 mg, subject 6 (68 kg), 7.5 mg oral
[10] = 15 mg, subject 1 (112 kg), 15 mg oral
[11] = 15 mg, subject 2 (76 kg), 15 mg oral
[12] = 15 mg, subject 3 (129 kg), 15 mg oral
[13] = 15 mg, subject 4 (59 kg), 15 mg oral
[14] = 15 mg, subject 5 (91 kg), 15 mg oral
[15] = 15 mg, subject 6 (68 kg), 15 mg oral
[16] = 22.5 mg, subject 1 (112 kg), 22.5 mg oral
[17] = 22.5 mg, subject 2 (76 kg), 22.5 mg oral
[18] = 22.5 mg, subject 3 (129 kg), 22.5 mg oral
[19] = 22.5 mg, subject 5 (91 kg), 22.5 mg oral
[20] = 22.5 mg, subject 6 (68 kg), 22.5 mg oral

T1 sequence (Q05940 whole entry): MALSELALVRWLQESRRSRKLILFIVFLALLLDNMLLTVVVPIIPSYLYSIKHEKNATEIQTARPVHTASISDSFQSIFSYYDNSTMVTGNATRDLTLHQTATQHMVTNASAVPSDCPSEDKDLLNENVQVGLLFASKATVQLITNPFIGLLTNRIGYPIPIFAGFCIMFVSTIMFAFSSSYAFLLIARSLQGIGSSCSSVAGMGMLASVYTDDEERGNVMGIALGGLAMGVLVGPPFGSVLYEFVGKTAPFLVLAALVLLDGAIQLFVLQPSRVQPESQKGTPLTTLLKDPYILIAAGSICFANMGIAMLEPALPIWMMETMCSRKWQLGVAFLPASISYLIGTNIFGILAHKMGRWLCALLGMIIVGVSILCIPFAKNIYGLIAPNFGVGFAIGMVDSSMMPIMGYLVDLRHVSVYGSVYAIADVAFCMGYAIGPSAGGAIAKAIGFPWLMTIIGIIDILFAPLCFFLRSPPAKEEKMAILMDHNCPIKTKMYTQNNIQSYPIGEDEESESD

Structure (SMILES): COc1cc2c(cc1OC)[C@H]1C[C@@H](O)[C@H](CC(C)C)CN1CC2 [(+)-α-dihydrotetrabenazine, (R,R,R)-3-isobutyl-9,10-dimethyloxy-1,3,4,5,7,11b-hexahydro-2H-pyrido[2,1-a]isoquinolin-2-ol]
- concentration at 1 h [1, 4]: 0.94 ng/mL
- concentration at 1.5 h [1, 4]: 2.39 ng/mL
- concentration at 2 h [1, 4]: 2.44 ng/mL
- concentration at 3 h [1, 4]: 3.01 ng/mL
- concentration at 0.5 h [1, 5]: 0.531 ng/mL
- concentration at 1 h [1, 5]: 13.7 ng/mL
- concentration at 1.5 h [1, 5]: 10.8 ng/mL
- concentration at 2 h [1, 5]: 14 ng/mL
- concentration at 3 h [1, 5]: 22.2 ng/mL
- concentration at 0.5 h [1, 6]: 0.216 ng/mL
- concentration at 1 h [1, 6]: 4.35 ng/mL
- concentration at 1.5 h [1, 6]: 6.91 ng/mL
- concentration at 2 h [1, 6]: 5.03 ng/mL
- concentration at 3 h [1, 6]: 6.96 ng/mL
- concentration at 0.5 h [1, 7]: 8.43 ng/mL
- concentration at 1 h [1, 7]: 15 ng/mL
- concentration at 1.5 h [1, 7]: 20.7 ng/mL
- concentration at 2 h [1, 7]: 17.6 ng/mL
- concentration at 3 h [1, 7]: 19.6 ng/mL
- concentration at 0.5 h [1, 8]: 6.68 ng/mL
- concentration at 1 h [1, 8]: 9.8 ng/mL
- concentration at 1.5 h [1, 8]: 13.5 ng/mL
- concentration at 2 h [1, 8]: 10.7 ng/mL
- concentration at 3 h [1, 8]: 11.2 ng/mL
- concentration at 1 h [1, 9]: 3.77 ng/mL
- concentration at 1.5 h [1, 9]: 3.06 ng/mL
- concentration at 2 h [1, 9]: 4.33 ng/mL
- concentration at 3 h [1, 9]: 9.18 ng/mL
- concentration at 0.5 h [1, 10]: 4.02 ng/mL
- concentration at 1 h [1, 10]: 11.1 ng/mL
- concentration at 1.5 h [1, 10]: 10.7 ng/mL
- concentration at 2 h [1, 10]: 10.2 ng/mL
- concentration at 3 h [1, 10]: 10.6 ng/mL
- concentration at 0.5 h [1, 11]: 7.99 ng/mL
- concentration at 1 h [1, 11]: 22.8 ng/mL
- concentration at 1.5 h [1, 11]: 46.4 ng/mL
- concentration at 2 h [1, 11]: 35.7 ng/mL
- concentration at 3 h [1, 11]: 46.5 ng/mL
- concentration at 0.5 h [1, 12]: 1.2 ng/mL
- concentration at 1 h [1, 12]: 14.3 ng/mL
- concentration at 1.5 h [1, 12]: 17.9 ng/mL
- concentration at 2 h [1, 12]: 12 ng/mL
- concentration at 3 h [1, 12]: 18.2 ng/mL
- concentration at 0.5 h [1, 13]: 26.7 ng/mL
- concentration at 1 h [1, 13]: 53.8 ng/mL
- concentration at 1.5 h [1, 13]: 42.5 ng/mL
- concentration at 2 h [1, 13]: 53.3 ng/mL
- concentration at 3 h [1, 13]: 60.2 ng/mL
- concentration at 0.5 h [1, 14]: 15.6 ng/mL
- concentration at 1 h [1, 14]: 34.2 ng/mL
- concentration at 1.5 h [1, 14]: 27.1 ng/mL
- concentration at 2 h [1, 14]: 31.8 ng/mL
- concentration at 3 h [1, 14]: 27.1 ng/mL
- concentration at 0.5 h [1, 15]: 5.41 ng/mL
- concentration at 1 h [1, 15]: 10.6 ng/mL
- concentration at 1.5 h [1, 15]: 16.1 ng/mL
- concentration at 2 h [1, 15]: 17.4 ng/mL
- concentration at 3 h [1, 15]: 14.9 ng/mL
- concentration at 0.5 h [1, 16]: 9.61 ng/mL
- concentration at 1 h [1, 16]: 18 ng/mL
- concentration at 1.5 h [1, 16]: 16.8 ng/mL
- concentration at 2 h [1, 16]: 14.9 ng/mL
- concentration at 3 h [1, 16]: 13.2 ng/mL
- concentration at 0.5 h [1, 17]: 5.23 ng/mL
- concentration at 1 h [1, 17]: 21.8 ng/mL
- concentration at 1.5 h [1, 17]: 36.2 ng/mL
- concentration at 2 h [1, 17]: 40.2 ng/mL
- concentration at 3 h [1, 17]: 51.8 ng/mL
- concentration at 0.5 h [1, 18]: 9.04 ng/mL
- concentration at 1 h [1, 18]: 34.7 ng/mL
- concentration at 1.5 h [1, 18]: 29.8 ng/mL
- concentration at 2 h [1, 18]: 26.3 ng/mL
- concentration at 3 h [1, 18]: 17.3 ng/mL
- concentration at 0.5 h [1, 19]: 55.3 ng/mL
- concentration at 1 h [1, 19]: 45.1 ng/mL
- concentration at 1.5 h [1, 19]: 46.2 ng/mL
- concentration at 2 h [1, 19]: 41.9 ng/mL
- concentration at 3 h [1, 19]: 42.5 ng/mL
- concentration at 0.5 h [1, 20]: 5.58 ng/mL
- concentration at 1 h [1, 20]: 8.01 ng/mL
- concentration at 1.5 h [1, 20]: 5.87 ng/mL
- concentration at 2 h [1, 20]: 12.5 ng/mL
- concentration at 3 h [1, 20]: 18.7 ng/mL
- plasma concentrations ([1]; subject 1 (112 kg), 7.5 mg oral): BLQ
- plasma concentrations ([1]; subject 6 (68 kg), 7.5 mg oral): BLQ
- % VMAT2 blocking ([2]; even in heavier individuals, doses as low as 7.5 mg): at least 50%
- % VMAT2 blocking ([2]; subject 1 (112 kg), 7.5 mg oral, PET scan 60-120 minutes after administration): 54%
- % VMAT2 blocking ([2]; subject 1 (112 kg), 15 mg oral, PET scan 60-120 minutes after administration): 73%
- % VMAT2 blocking ([2]; subject 1 (112 kg), 22.5 mg oral, PET scan 60-120 minutes after administration): 75%
- % VMAT2 blocking ([2]; subject 2 (76 kg), 7.5 mg oral, PET scan 60-120 minutes after administration): 73%
- % VMAT2 blocking ([2]; subject 2 (76 kg), 15 mg oral, PET scan 60-120 minutes after administration): 83%
- % VMAT2 blocking ([2]; subject 2 (76 kg), 22.5 mg oral, PET scan 60-120 minutes after administration): 82%
- % VMAT2 blocking ([2]; subject 3 (129 kg), 7.5 mg oral, PET scan 60-120 minutes after administration): 62%
- % VMAT2 blocking ([2]; subject 3 (129 kg), 15 mg oral, PET scan 60-120 minutes after administration): 69%
- % VMAT2 blocking ([2]; subject 3 (129 kg), 22.5 mg oral, PET scan 60-120 minutes after administration): 74%
- % VMAT2 blocking ([2]; subject 4 (59 kg), 7.5 mg oral, PET scan 60-120 minutes after administration): 84%
- % VMAT2 blocking ([2]; subject 4 (59 kg), 15 mg oral, PET scan 60-120 minutes after administration): 89%
- % VMAT2 blocking ([2]; subject 5 (91 kg), 7.5 mg oral, PET scan 60-120 minutes after administration): 73%
- % VMAT2 blocking ([2]; subject 5 (91 kg), 15 mg oral, PET scan 60-120 minutes after administration): 79%
- % VMAT2 blocking ([2]; subject 5 (91 kg), 22.5 mg oral, PET scan 60-120 minutes after administration): 82%
- % VMAT2 blocking ([2]; subject 6 (68 kg), 7.5 mg oral, PET scan 60-120 minutes after administration): 60%
- % VMAT2 blocking ([2]; subject 6 (68 kg), 15 mg oral, PET scan 60-120 minutes after administration): 76%
- % VMAT2 blocking ([2]; subject 6 (68 kg), 22.5 mg oral, PET scan 60-120 minutes after administration): 62%
- stereotypic behaviour versus rats treated with the vehicle [3]: comparable
- total movement versus rats treated with the vehicle [3]: comparable
